Assay results reported in ChEMBL document CHEMBL3885861, “Open TG-GATES”.

Organism: Rattus norvegicus
Assay: Open TG-GATES - Regimen: Daily Repeat
Assay type: toxicity, organism-based, Sprague-Dawley
Set-up: regimen Daily Repeat, gender Male, age 6 weeks
Settings: in vivo, po, 0 mg/kg, route gavage, dose level Control; for APTT / Bas / Eos / Fbg / Hb / Ht / Lym / MCH / MCHC / MCV / Mono / Neu / PT / Plat / RBC / Ret / WBC: tissue Blood; for KIDNEY_L / KIDNEY_R / KIDNEY_TOTAL: tissue Kidney; for LIVER: tissue Liver; for A/G / ALP / ALT / AST / BUN / CRE / Ca / Cl / DBIL / GLC / IP / K / LDH / Na / PL / RALB / TBIL / TC / TG / TP / gamma-GTP: tissue Plasma

CCCNC(=O)NS(=O)(=O)c1ccc(Cl)cc1 [CHLORPROPAMIDE]
TERMINAL_BW (72 h, time 3 day): 215.2 g | APTT (72 h, time 3 day): 17.7 s | Bas (72 h, time 3 day): 0.2% | Eos (72 h, time 3 day): 1% | Fbg (72 h, time 3 day): 289.2 mg/dL | Hb (72 h, time 3 day): 13.2 g/dL | Ht (72 h, time 3 day): 40.3% | Lym (72 h, time 3 day): 78% | MCH (72 h, time 3 day): 21.8 pg | MCHC (72 h, time 3 day): 32.8% | MCV (72 h, time 3 day): 66.6 fL | Mono (72 h, time 3 day): 4% | Neu (72 h, time 3 day): 16% | PT (72 h, time 3 day): 15.4 s | Plat (72 h, time 3 day): 120.9 x10_4/uL | RBC (72 h, time 3 day): 605.6 x10_4/ul | Ret (72 h, time 3 day): 7.5% | WBC (72 h, time 3 day): 84 x10_2/uL | KIDNEY_L (72 h, time 3 day): 0.9 g | KIDNEY_R (72 h, time 3 day): 0.9 g | KIDNEY_TOTAL (72 h, time 3 day): 1.9 g | LIVER (72 h, time 3 day): 10.4 g | A/G (72 h, time 3 day): 0.9 | ALP (72 h, time 3 day): 1591.4 IU/L | ALT (72 h, time 3 day): 48.2 IU/L | AST (72 h, time 3 day): 71.6 IU/L | BUN (72 h, time 3 day): 16.8 mg/dL | CRE (72 h, time 3 day): 0.2 mg/dL | Ca (72 h, time 3 day): 10.8 mg/dL | Cl (72 h, time 3 day): 105 meq/L | DBIL (72 h, time 3 day): 0.01 mg/dL | GLC (72 h, time 3 day): 184 mg/dL | IP (72 h, time 3 day): 7.3 mg/dL | K (72 h, time 3 day): 4 meq/L | LDH (72 h, time 3 day): 95.2 IU/L | Na (72 h, time 3 day): 142.2 meq/L | PL (72 h, time 3 day): 154.6 mg/dL | RALB (72 h, time 3 day): 2.7 g/dL | TBIL (72 h, time 3 day): 0.034 mg/dL | TC (72 h, time 3 day): 80.4 mg/dL | TG (72 h, time 3 day): 107.2 mg/dL | TP (72 h, time 3 day): 5.8 g/dL | gamma-GTP (72 h, time 3 day): 1 IU/L | TERMINAL_BW ([…], time 7 day): 251.8 g | TERMINAL_BW ([…], time 14 day): 307.1 g | TERMINAL_BW ([…], time 28 day): 390.8 g | APTT ([…], time 7 day): 17.6 s | Bas ([…], time 7 day): 0.2% | Eos ([…], time 7 day): 1% | Fbg ([…], time 7 day): 294 mg/dL | Hb ([…], time 7 day): 13.7 g/dL | Ht ([…], time 7 day): 40.9% | Lym ([…], time 7 day): 76.2% | MCH ([…], time 7 day): 21.6 pg | MCHC ([…], time 7 day): 33.4% | MCV ([…], time 7 day): 64.7 fL | Mono ([…], time 7 day): 2.6% | Neu ([…], time 7 day): 18.8% | PT ([…], time 7 day): 15.5 s | Plat ([…], time 7 day): 124.5 x10_4/uL | RBC ([…], time 7 day): 632 x10_4/ul | Ret ([…], time 7 day): 6.4% | WBC ([…], time 7 day): 98.4 x10_2/uL | APTT ([…], time 14 day): 18.5 s | Bas ([…], time 14 day): 0.2% | Eos ([…], time 14 day): 1% | Fbg ([…], time 14 day): 274 mg/dL | Hb ([…], time 14 day): 14.5 g/dL | Ht ([…], time 14 day): 42.8% | Lym ([…], time 14 day): 78.4% | MCH ([…], time 14 day): 20.6 pg | MCHC ([…], time 14 day): 33.8% | MCV ([…], time 14 day): 60.8 fL | Mono ([…], time 14 day): 2.4% | Neu ([…], time 14 day): 17.4% | PT ([…], time 14 day): 15.2 s | Plat ([…], time 14 day): 122.4 x10_4/uL | RBC ([…], time 14 day): 703.6 x10_4/ul | Ret ([…], time 14 day): 4.5% | WBC ([…], time 14 day): 115.5 x10_2/uL | APTT ([…], time 28 day): 20.6 s | Bas ([…], time 28 day): 0.2% | Eos ([…], time 28 day): 1.2% | Fbg ([…], time 28 day): 259.6 mg/dL | Hb ([…], time 28 day): 14.9 g/dL | Ht ([…], time 28 day): 45.3% | Lym ([…], time 28 day): 78.8% | MCH ([…], time 28 day): 19 pg | MCHC ([…], time 28 day): 32.9% | MCV ([…], time 28 day): 57.5 fL | Mono ([…], time 28 day): 2% | Neu ([…], time 28 day): 17% | PT ([…], time 28 day): 16.1 s | Plat ([…], time 28 day): 94.8 x10_4/uL | RBC ([…], time 28 day): 787.4 x10_4/ul | Ret ([…], time 28 day): 2.2% | WBC ([…], time 28 day): 103.1 x10_2/uL | KIDNEY_L ([…], time 7 day): 1.1 g | KIDNEY_R ([…], time 7 day): 1.1 g | KIDNEY_TOTAL ([…], time 7 day): 2.2 g | KIDNEY_L ([…], time 14 day): 1.2 g | KIDNEY_R ([…], time 14 day): 1.2 g | KIDNEY_TOTAL ([…], time 14 day): 2.4 g | KIDNEY_L ([…], time 28 day): 1.4 g | KIDNEY_R ([…], time 28 day): 1.4 g | KIDNEY_TOTAL ([…], time 28 day): 2.8 g | LIVER ([…], time 7 day): 11.6 g | LIVER ([…], time 14 day): 13.6 g | LIVER ([…], time 28 day): 14.6 g | A/G ([…], time 7 day): 0.8 | ALP ([…], time 7 day): 1869.6 IU/L | ALT ([…], time 7 day): 43.2 IU/L | AST ([…], time 7 day): 69.4 IU/L | BUN ([…], time 7 day): 15.4 mg/dL | CRE ([…], time 7 day): 0.2 mg/dL | Ca ([…], time 7 day): 10.9 mg/dL | Cl ([…], time 7 day): 106 meq/L | DBIL ([…], time 7 day): 0.014 mg/dL | GLC ([…], time 7 day): 185.6 mg/dL | IP ([…], time 7 day): 6.7 mg/dL | K ([…], time 7 day): 4.2 meq/L | LDH ([…], time 7 day): 97.4 IU/L | Na ([…], time 7 day): 143 meq/L | PL ([…], time 7 day): 154.2 mg/dL | RALB ([…], time 7 day): 2.7 g/dL | TBIL ([…], time 7 day): 0.036 mg/dL | TC ([…], time 7 day): 82 mg/dL | TG ([…], time 7 day): 105.2 mg/dL | TP ([…], time 7 day): 5.8 g/dL | gamma-GTP ([…], time 7 day): 1.2 IU/L | A/G ([…], time 14 day): 0.8 | ALP ([…], time 14 day): 1479.6 IU/L | ALT ([…], time 14 day): 44.6 IU/L | AST ([…], time 14 day): 68.6 IU/L | BUN ([…], time 14 day): 18.4 mg/dL | CRE ([…], time 14 day): 0.2 mg/dL | Ca ([…], time 14 day): 10.7 mg/dL | Cl ([…], time 14 day): 104.2 meq/L | DBIL ([…], time 14 day): 0.012 mg/dL | GLC ([…], time 14 day): 194.6 mg/dL | IP ([…], time 14 day): 7.3 mg/dL | K ([…], time 14 day): 4.1 meq/L | LDH ([…], time 14 day): 120 IU/L | Na ([…], time 14 day): 143.4 meq/L | PL ([…], time 14 day): 164 mg/dL | RALB ([…], time 14 day): 2.8 g/dL | TBIL ([…], time 14 day): 0.032 mg/dL | TC ([…], time 14 day): 77.8 mg/dL | TG ([…], time 14 day): 158.4 mg/dL | TP ([…], time 14 day): 6.1 g/dL | gamma-GTP ([…], time 14 day): 1 IU/L | A/G ([…], time 28 day): 0.8 | ALP ([…], time 28 day): 1207 IU/L | ALT ([…], time 28 day): 40.2 IU/L | AST ([…], time 28 day): 66.8 IU/L | BUN ([…], time 28 day): 16.2 mg/dL | CRE ([…], time 28 day): 0.2 mg/dL | Ca ([…], time 28 day): 10.6 mg/dL | Cl ([…], time 28 day): 105.6 meq/L | DBIL ([…], time 28 day): 0.01 mg/dL | GLC ([…], time 28 day): 188.8 mg/dL | IP ([…], time 28 day): 6.5 mg/dL | K ([…], time 28 day): 3.8 meq/L | LDH ([…], time 28 day): 88.4 IU/L | Na ([…], time 28 day): 144 meq/L | PL ([…], time 28 day): 137.6 mg/dL | RALB ([…], time 28 day): 2.7 g/dL | TBIL ([…], time 28 day): 0.03 mg/dL | TC ([…], time 28 day): 65.8 mg/dL | TG ([…], time 28 day): 122.6 mg/dL | TP ([…], time 28 day): 6.1 g/dL | gamma-GTP ([…], time 28 day): 1 IU/L
